Values of other authors in patent US8071770B2, “Spirohydantoin aryl CGRP receptor antagonists” (Merck Sharp & Dohme Corp., priority 2005, dated 2011).
Ends that are not written are not given here.

Key:
[1] = test system: middle meningeal artery; details: rats, electrical stimulation of the dura mater, prior administration (Williamson et al. 1997)
[2] = test system: facial blood flow; details: rat, trigeminal ganglion stimulation (Escott et al. 1995)
[3] = test system: facial blood flow; details: marmoset, electrical stimulation of the trigeminal ganglion (Doods et al. 2000)

Compound: CGRP (8-37): a fragment of CGRP that lacks seven N-terminal amino acid residues; a peptide CGRP antagonist (VTHRLAGLLSRSGGVVKNNFVPTNVGSKAF; ends and bridges not checked; UniProt P06881 90-119, looked up, fragment)
- effect on increase of middle meningeal artery diameter [1]: blocked
- effect on increase of facial blood flow [2]: inhibited

Compound: NCCCC[C@H](NC(=O)[C@@H](Cc1cc(Br)c(O)c(Br)c1)NC(=O)N1CCC(N2Cc3ccccc3NC2=O)CC1)C(=O)N1CCN(c2ccncc2)CC1 [BIBN4096BS]
- effect on increase in facial blood flow [3]: blocked
